Results reported in PubChem BioAssay AID330 (DTP/NCI, 2004).
Values joined by “and” are separate entries in the source; they are usually repeats but may differ in a detail not shown here. Identical values can stand only once. Inconclusive results and toxic doses are left out.

Test system: P388 leukemia ip, CD2F1 mice, survival T/C
Assay: NCI In Vivo Anticancer Drug Screen. Data for tumor model P388 Leukemia (intraperitoneal) in CD2F1 (CDF1) mice
Conditions: endpoint: median survival time, higher = longer survival
Procedure, shortened: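 Mice carrying the transplanted tumor received test compound or vehicle. Survival was recorded in each group, and the value is the treated-group measurement divided by that of the vehicle-treated control group.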

[1] = dose: 50.0 mg/kg/injection, schedule: Q01DX009 (ip), vehicle: saline with Tween-80
[2] = dose: 200.0 mg/kg/injection, schedule: Q01DX001 (ip), vehicle: Klucel (hydroxypropylcellulose) (HPC)
[3] = dose: 100.0 mg/kg/injection, schedule: Q01DX009 (ip), vehicle: saline with Tween-80
[4] = dose: 200.0 mg/kg/injection, schedule: Q01DX009 (ip), vehicle: saline with Tween-80
[5] = dose: 50.0 mg/kg/injection, schedule: Q01DX009 (ip), vehicle: Klucel (hydroxypropylcellulose) (HPC)
[6] = dose: 100.0 mg/kg/injection, schedule: Q04DX003 (ip), vehicle: saline with Tween-80
[7] = dose: 50.0 mg/kg/injection, schedule: Q01DX009 (ip), vehicle: saline
[8] = dose: 100.0 mg/kg/injection, schedule: Q01DX009 (ip), vehicle: saline
[9] = dose: 200.0 mg/kg/injection, schedule: Q01DX009 (ip), vehicle: saline
[10] = dose: 25.0 mg/kg/injection, schedule: Q01DX005 (ip), vehicle: Klucel (hydroxypropylcellulose) (HPC)

CC(=O)Nc1ccc(CN2CC(C)N(N)C(C)C2)cc1 (centres undefined)
T/C (dose: 25.0 mg/kg/injection, schedule: Q04DX003 (ip), vehicle: Klucel (hydroxypropylcellulose) (HPC)): 101 % of control | T/C (dose: 50.0 mg/kg/injection, schedule: Q04DX003 (ip), vehicle: Klucel (hydroxypropylcellulose) (HPC)): 98 % of control | T/C (dose: 100.0 mg/kg/injection, schedule: Q04DX003 (ip), vehicle: Klucel (hydroxypropylcellulose) (HPC)): 95 % of control | T/C (dose: 200.0 mg/kg/injection, schedule: Q04DX003 (ip), vehicle: Klucel (hydroxypropylcellulose) (HPC)): 100 % of control | T/C (dose: 400.0 mg/kg/injection, schedule: Q04DX003 (ip), vehicle: Klucel (hydroxypropylcellulose) (HPC)): 104 % of control

CC(=O)Nc1ccc(/C=N/NC(=O)c2ccc(C)cc2)cc1
T/C (dose: 25.0 mg/kg/injection, schedule: Q01DX009 (ip), vehicle: saline with Tween-80): 103 % of control | T/C [1]: 86 % of control

Cn1c(=O)c2[nH]c(Cc3cccc(O)c3)nc2n(C)c1=O
T/C (dose: 25.0 mg/kg/injection, schedule: Q01DX009 (ip), vehicle: suspension in saline): 99 % of control | T/C (dose: 50.0 mg/kg/injection, schedule: Q01DX009 (ip), vehicle: suspension in saline): 96 % of control | T/C (dose: 100.0 mg/kg/injection, schedule: Q01DX009 (ip), vehicle: suspension in saline): 92 % of control and 93 % of control | T/C (dose: 200.0 mg/kg/injection, schedule: Q01DX009 (ip), vehicle: suspension in saline): 104 % of control | T/C (dose: 400.0 mg/kg/injection, schedule: Q01DX009 (ip), vehicle: suspension in saline): 91 % of control

CNC(=O)OCc1c(COC(=O)NC)c(-c2cc(F)ccc2F)n2c1CCC2
T/C (dose: 12.5 mg/kg/injection, schedule: Q01DX009 (ip), vehicle: distilled water + Tween-80): 151 % of control | T/C (dose: 25.0 mg/kg/injection, schedule: Q01DX009 (ip), vehicle: distilled water + Tween-80): 155 % of control and 156 % of control

CC(COS(C)(=O)=O)OS(C)(=O)=O (centres undefined)
T/C (dose: 50.0 mg/kg/injection, schedule: Q01DX001 (ip), vehicle: Klucel (hydroxypropylcellulose) (HPC)): 98 % of control | T/C (dose: 100.0 mg/kg/injection, schedule: Q01DX001 (ip), vehicle: Klucel (hydroxypropylcellulose) (HPC)): 93 % of control | T/C [2]: 101 % of control

C/C(=N/N(C)C)c1ccc(Cl)cc1
T/C (dose: 100.0 mg/kg/injection, schedule: Q01DX001 (ip), vehicle: saline): 100 % of control | T/C [2]: 108 % of control | T/C (dose: 200.0 mg/kg/injection, schedule: Q01DX001 (ip), vehicle: saline): 108 % of control | T/C (dose: 400.0 mg/kg/injection, schedule: Q01DX001 (ip), vehicle: Klucel (hydroxypropylcellulose) (HPC)): 106 % of control | T/C (dose: 400.0 mg/kg/injection, schedule: Q01DX001 (ip), vehicle: saline): 106 % of control

COC(=O)/C=C(\C(=O)OC)c1ccccc1C(C(=O)OC)c1ccccc1CC(=O)OC (centres undefined)
T/C [1]: 108 % of control | T/C [3]: 106 % of control | T/C [4]: 108 % of control

COC(=O)C1CCCN1 (centres undefined)
T/C (dose: 60.0 mg/kg/injection, schedule: Q01DX005 (ip), vehicle: saline): 105 % of control | T/C (dose: 120.0 mg/kg/injection, schedule: Q01DX005 (ip), vehicle: saline): 111 % of control | T/C (dose: 240.0 mg/kg/injection, schedule: Q01DX005 (ip), vehicle: saline): 104 % of control

C/C(N=NC(=S)N1CCCC(C)C1)=C1\C=CC=CN1O (centres undefined)
T/C (dose: 50.0 mg/kg/injection, schedule: Q01DX005 (ip), vehicle: saline with Tween-80): 101 % of control | T/C (dose: 100.0 mg/kg/injection, schedule: Q01DX005 (ip), vehicle: saline with Tween-80): 98 % of control | T/C (dose: 200.0 mg/kg/injection, schedule: Q01DX005 (ip), vehicle: saline with Tween-80): 112 % of control

Nc1cc(=O)cc2nn[nH]n12
T/C [5]: 102 % of control | T/C (dose: 100.0 mg/kg/injection, schedule: Q01DX009 (ip), vehicle: Klucel (hydroxypropylcellulose) (HPC)): 108 % of control | T/C (dose: 200.0 mg/kg/injection, schedule: Q01DX009 (ip), vehicle: Klucel (hydroxypropylcellulose) (HPC)): 101 % of control

c1nc(SC2CCCC2)c2[nH]cnc2n1
T/C [6]: 118 % of control | T/C (dose: 200.0 mg/kg/injection, schedule: Q04DX003 (ip), vehicle: saline with Tween-80): 104 % of control | T/C (dose: 400.0 mg/kg/injection, schedule: Q04DX003 (ip), vehicle: saline with Tween-80): 118 % of control

O=C(CCl)N1c2ccccc2Sc2ccc3ccccc3c21
T/C [7]: 95 % of control | T/C [8]: 102 % of control | T/C [9]: 113 % of control

C/C(=N\N=Nc1ccc(N(C)C)cc1)c1ccccc1
T/C (dose: 60.0 mg/kg/injection, schedule: Q01DX005 (ip), vehicle: Klucel + Tween-80): 100 % of control | T/C (dose: 120.0 mg/kg/injection, schedule: Q01DX005 (ip), vehicle: Klucel + Tween-80): 99 % of control

CCOC(=O)N(CCCl)C(=O)C(C)C
T/C (dose: 100.0 mg/kg/injection, schedule: Q01DX001 (ip), vehicle: saline with Tween-80): 104 % of control | T/C (dose: 200.0 mg/kg/injection, schedule: Q01DX001 (ip), vehicle: saline with Tween-80): 100 % of control | T/C (dose: 400.0 mg/kg/injection, schedule: Q01DX001 (ip), vehicle: saline with Tween-80): 104 % of control

Cn1c(=O)c2nc3c(=O)n(C)c(=O)n(C)c3nc2n(C)c1=O
T/C (dose: 6.25 mg/kg/injection, schedule: Q01DX009 (ip), vehicle: Klucel (hydroxypropylcellulose) (HPC)): 100 % of control and 102 % of control and 118 % of control | T/C (dose: 12.5 mg/kg/injection, schedule: Q01DX009 (ip), vehicle: Klucel (hydroxypropylcellulose) (HPC)): 101 % of control and 103 % of control and 116 % of control | T/C (dose: 25.0 mg/kg/injection, schedule: Q01DX009 (ip), vehicle: Klucel (hydroxypropylcellulose) (HPC)): 104 % of control and 120 % of control | T/C [5]: 111 % of control

Cc1ccc(O)c(N)c1
T/C [1]: 94 % of control | T/C [7]: 98 % of control | T/C [3]: 100 % of control | T/C [8]: 104 % of control and 119 % of control | T/C [4]: 105 % of control | T/C [9]: 108 % of control and 95 % of control | T/C (dose: 400.0 mg/kg/injection, schedule: Q01DX009 (ip), vehicle: saline with Tween-80): 121 % of control

COc1ccc(OC(=O)c2ccccc2)c2c1C(=O)C=CC2=O
T/C (dose: 1.56 mg/kg/injection, schedule: Q01DX005 (ip), vehicle: saline with Tween-80): 116 % of control | T/C (dose: 3.13 mg/kg/injection, schedule: Q01DX005 (ip), vehicle: saline with Tween-80): 111 % of control | T/C (dose: 6.25 mg/kg/injection, schedule: Q01DX005 (ip), vehicle: saline with Tween-80): 111 % of control and 116 % of control

COc1cc(/C=C/C(=O)NCCc2c[nH]c3ccc(O)cc23)ccc1O
T/C (dose: 6.25 mg/kg/injection, schedule: Q01DX005 (ip), vehicle: Klucel (hydroxypropylcellulose) (HPC)): 96 % of control | T/C (dose: 12.5 mg/kg/injection, schedule: Q01DX005 (ip), vehicle: Klucel (hydroxypropylcellulose) (HPC)): 95 % of control | T/C [10]: 87 % of control and 90 % of control | T/C (dose: 50.0 mg/kg/injection, schedule: Q01DX005 (ip), vehicle: Klucel (hydroxypropylcellulose) (HPC)): 88 % of control | T/C (dose: 200.0 mg/kg/injection, schedule: Q01DX005 (ip), vehicle: Klucel (hydroxypropylcellulose) (HPC)): 88 % of control

CCC(O)(CC(=O)O)c1ccccc1 (centres undefined)
T/C [3]: 104 % of control | T/C [4]: 95 % of control

CCN(CC)CCCC(Nc1c2ccc(Cl)cc2nc2ccc(OC)cc12)c1cccc2ccccc12 (centres undefined)
T/C (dose: 6.0 mg/kg/injection, schedule: Q01DX005 (ip), vehicle: Klucel (hydroxypropylcellulose) (HPC)): 103 % of control | T/C (dose: 12.0 mg/kg/injection, schedule: Q01DX005 (ip), vehicle: Klucel (hydroxypropylcellulose) (HPC)): 106 % of control | T/C [10]: 106 % of control

O=C(O)CN(CC(=O)O)Cc1cc2c(cc1O)Oc1cc(O)c(CN(CC(=O)O)CC(=O)O)cc1C21OC(=O)c2ccccc21
T/C [1]: 105 % of control | T/C [3]: 101 % of control | T/C [4]: 97 % of control

CN1C(=O)C(O)N=C(c2ccccc2)c2cc(Cl)ccc21 (centres undefined)
T/C [1]: 101 % of control | T/C [3]: 105 % of control | T/C [4]: 117 % of control

O/N=C(/Cc1nc2cc(Cl)c(Cl)cc2nc1C/C(=N/O)c1cccc2ccccc12)c1cccc2ccccc12
T/C (dose: 60.0 mg/kg/injection, schedule: Q01DX005 (ip), vehicle: saline with Tween-80): 91 % of control | T/C (dose: 120.0 mg/kg/injection, schedule: Q01DX005 (ip), vehicle: saline with Tween-80): 99 % of control | T/C (dose: 240.0 mg/kg/injection, schedule: Q01DX005 (ip), vehicle: saline with Tween-80): 94 % of control

CCCCCCC(C)NN (centres undefined)
T/C [6]: 86 % of control
